Data as given in patent US7192768B2, “Synchronization of the cytoplasmatic and the nuclear maturation of oocytes in vitro” (Novo Nordisk A/S, priority 2001, dated 2007).
Marks after values point to notes of the source that are not given here.

Legend:
[1] = test system: cumulus enclosed mouse oocytes; test: FSH induced resumption of meiosis of mouse oocytes cultured in vitro (dbc-AMP control medium); type: cell-based; settings: for % GVBD / % PB (PB/GVBD): 22-24 h
Description: Immature female mice (B6D2-F1 strain C57B1/2J) were kept under controlled light and temperature conditions with free access to food and water. Ovarian stimulation was performed when the mice weighed 10–16 grams and consisted of an intra-peritoneal injection of Gonadoplex (Leo, Copenhagen, Denmark) containing 7.5 U/mouse. The animals were killed by cervical dislocation 44–48 h later. The media used for the culture of oocytes consisted of α-Minimum Essential Medium (α-MEM), with Earles Balanced Salt Solution (EBSS), 200 μM dibuturyl-cyclic-adenosine-mono-phosphate (dbc-AMP), 3 mg/ml Bovine Serum Albumin, 0,23 mM pyruvate, 2 mM glutamine, 100 IU/ml penicillin and 100 mg/ml streptomycin (i.e. control medium). The ovaries were recovered and oocytes isolated from the ovaries by puncturing individual follicles using a 25 gauge needle. The oocytes were washed 3 times in control medium before the start of each experiment. Cumulus enclosed oocytes were cultured separately in 4-well dishes (Nuncleon, Roskilde, Denmark), 0.4 ml medium in each well containing control medium or medium supplemented with ketoconazole in a 100% humidified atmosphere of 5% CO2 with 95% air at 37° C. The culture period was 22–24 h. By the end of the culture period, germinal vesicle breakdown (GVBD) was scored by examining the oocyte in an inverted microscope. The percentage of oocytes with GVBD per total number of oocytes (% GVBD) was calculated.

[2] = test system: cumulus-enclosed oocytes (CEO); test: FSH induced resumption of meiosis of hypoxanthine arrested mouse oocytes cultured in vitro (ketoconazole); type: cell-based; settings: HX-medium; for % GVBD / % PB (PB/GVBD): 24 h
Description: Oocytes were obtained from immature mice (Kunming white mouse) weighing 14–16 g that were kept under controlled light and temperature conditions with free access to water. The mice received an intra peritoneal injection of 0.1 ml pregnant mare's serum gonadotrophin (PMSG, Sigma, New York, U.S.A) containing 10 IU PMSG. Forty-six hours later, the animals were killed by cervical dislocation. The ovaries were dissected out and placed in M199 culture medium (GIBCO, U.S.A) containing 4 mM hypoxanthine, 3 mg/ml bovine serum albumin, 0.23 mM pyruvate, 2 mM glutamine (all Sigma, U.S.A) and 100 IU/ml penicillin, 100 ug/ml Streptomycin. This medium was termed “HX-medium”. A media similar to the above but without HX are termed “maturation-medium”. Oocytes were isolated in HX-medium under a stereo microscope by manual rupture of follicles using a pair of 5.5-gauge needles. Spherical oocytes with intact cumulus cells connection and displaying germinal vesicle were categorized as cumulus-enclosed oocytes (CEO). Oocytes were rinsed 3 times in fresh HX-medium. Prior to each experimental set-up, all oocytes from 10–15 mice were pooled. Only oocytes with a germinal vesicle present were used and distributed in separate wells of a 4-well dish (Nuncoln, Denmark) containing 1 ml of HX-medium. Each well contained 20–30 oocytes and was cultured at 37° C. in 1000% humidity in air with 5% CO2. Each experiment was repeated at least 4 times. At the end of the culture period (i.e 24 h), oocytes with GV or GVBD, or polar body (PB) were counted using an inverted microscope with differential interference contrast equipment (Leica, German). The percentage of oocytes with GVBD per total number of oocytes (% GVBD) and the percentage of oocytes with PB formation per total number of oocytes (% PB) were calculated.

[3] = test system: cumulus-enclosed oocytes (CEO); test: FSH induced resumption of meiosis and cumulus expansion of hypoxanthine arrested mouse oocytes cultured in vitro (22-hydroxycholesterol); type: cell-based; parameters: Cumulus expansion: key to the marks not given beside the values
Description: Immature female mice (B6D2-F1 strain C57B1/2J) were kept under controlled light and temperature conditions with free access to food and water. Ovarian stimulation was performed when the mice weighed 10–16 grams and consisted of an intra-peritoneal injection of Gonadoplex (Leo, Copenhagen, Denmark) containing 7.5 U/mouse. The animals were killed by cervical dislocation 44–48 h later. The media used for the culture of oocytes consisted of α-Minimum Essential Medium (α-MEM), with Earles Balanced Salt Solution (EBSS), containing 4 mM hypoxanthine, 3 mg/ml bovine serum albumin, 0.23 mM pyruvate, 2 mM glutamine (all Sigma, U.S.A) and 100 IU/ml penicillin, 100 ug/ml Streptomycin. This medium was termed “HX-medium”. A media similar to the above but without HX are termed “maturation-medium”. Oocytes were isolated in HX-medium under a stereo microscope by manual rupture of follicles using a pair of 5.5-gauge needles. Spherical oocytes with intact cumulus cells connection and displaying germinal vesicle were categorized as cumulus-enclosed oocytes (CEO). Oocytes were rinsed 3 times in fresh HX-medium. Prior to each experimental set-up, all oocytes from 10–15 mice were pooled. Only oocytes with a germinal vesicle present were used and distributed in separate wells of a 4-well dish (Nuncoln, Denmark) containing 1 ml of HX-medium. Each well contained 20–30 oocytes and was cultured at 37° C. in 100% humidity in air with 5% CO2. Each experiment was repeated at least 4 times. At the end of the culture period (i.e 24 h), oocytes with GV or GVBD, or polar body (PB) were counted using an inverted microscope with differential interference contrast equipment (Leica, German). […]
Graduation of cumulus expansion: 0: No expansion, compact cumulus layer surrounding the oocyte; +: A slight cumulus expansion, the most peripheral cumulus cell looks a little fluffy; ++: good expansion of cumulus cell without a spherical cloud like expansion; +++: full cumulus expansion with a fluffy cloud like expansion with extended distance between the somatic cells.

[4] = test system: cultured mouse oocytes; settings: WO 98/28323; cited from earlier work
[5] = test system: cumulus enclosed oocytes; settings: AY added to cumulus enclosed oocytes; cited from earlier work
[6] = test system: human oocytes; settings: EGF 2 ng/ml, 30 h culture; cited from earlier work
[7] = ketoconazole 5 μM in medium with FSH 75 IU/L
[8] = ketoconazole 10 μM in medium with FSH 75 IU/L
[9] = ketoconazole 20 μM in medium with FSH 75 IU/L
[10] = ketoconazole 0.1 μM + FSH 50 IU/L
[11] = ketoconazole 1 μM + FSH 50 IU/L
[12] = ketoconazole 10 μM + FSH 50 IU/L
[13] = ketoconazole 100 μM + FSH 50 IU/L
[14] = ketoconazole 1000 μM + FSH 50 IU/L
[15] = 22-OH-cholesterole 1 μg/ml + FSH 75 IU/L, with fetal calf serum
[16] = 22-OH-cholesterole 1 μg/ml + FSH 75 IU/L, without fetal calf serum
[17] = 22-OH-cholesterole 5 μg/ml + FSH 75 IU/L, without fetal calf serum
[18] = 22-OH-cholesterole 10 μg/ml + FSH 75 IU/L, with fetal calf serum
[19] = 22-OH-cholesterole 10 μg/ml + FSH 75 IU/L, without fetal calf serum
[20] = 22-OH-cholesterole 25 μg/ml + FSH 75 IU/L, with fetal calf serum
[21] = 22-OH-cholesterole 25 μg/ml + FSH 75 IU/L, without fetal calf serum

With `CC(=O)N1CCN(c2ccc(OCC3COC(Cn4ccnc4)(c4ccc(Cl)cc4Cl)O3)cc2)CC1` (centres unmarked) [Ketoconazole, ketoconazole] the “% GVBD” value [1, 7] was 7%, the “% PB (PB/GVBD)” value [1, 7] was 57% and the “% GVBD” value [1, 8] was 7%. The “% PB (PB/GVBD)” value [1, 8] was 8%, the “% GVBD” value [1, 9] was 3% and the “% PB (PB/GVBD)” value [1, 9] was 0%. For the same compound, the “effect on FSH induced resumption of meiosis (in words)” value (from here on “effect on FSH induced resumption”) ([1]; ketoconazole 5-20 μM with FSH 75 IU/L) was “able to prevent oocytes resuming meiosis”, the “% GVBD” value [2, 10] was 58% and the “% PB (PB/GVBD)” value [2, 10] was 33%. For the same compound, the “% GVBD” value [2, 11] was 48* %, the “% PB (PB/GVBD)” value [2, 11] was 30% and the “% GVBD” value [2, 12] was 35* %. For the same compound, the “% PB (PB/GVBD)” value [2, 12] was 25%, the “% GVBD” value [2, 13] was 20* % and the “% PB (PB/GVBD)” value [2, 13] was 19* %. For the same compound, the “% GVBD” value [2, 14] was 21* %, the “% PB (PB/GVBD)” value [2, 14] was 17* % and the “effect on FSH induced resumption” value ([2]; ketoconazole with FSH 50 IU/L) was “prevents oocytes from resuming meiosis”. For the same compound, the “effect on PB formation (in words)” value ([2]; ketoconazole with FSH 50 IU/L) was “dose-dependant inhibition of PB formation”.

For `CC(C)CCC(O)[C@@H](C)[C@H]1CC[C@H]2[C@@H]3CC=C4C[C@@H](O)CC[C@]4(C)[C@H]3CC[C@]12C` (some centres unmarked) [22-OH-cholesterole, 22-hydroxycholesterol], the “% GVBD” value [3, 15] was 41%, the “% PB (PB/GVBD)” value [3, 15] was 29% and the Cumulus expansion [3, 15] was “+++”. The “% GVBD” value [3, 16] was 62%, the “% PB (PB/GVBD)” value [3, 16] was 25* % and the “% GVBD” value ([3]; 22-OH-cholesterole 3 μg/ml alone (no FSH), without fetal calf serum, HX-medium, 24 h) was 26%. For the same compound, the “% GVBD” value [3, 17] was 72%, the “% PB (PB/GVBD)” value [3, 17] was 26* % and the “% GVBD” value [3, 18] was 39* %. The “% PB (PB/GVBD)” value [3, 18] was 14* %, the “% GVBD” value [3, 19] was 31* % and the “% PB (PB/GVBD)” value [3, 19] was 11* %. For the same compound, the “% GVBD” value [3, 20] was 19* %, the “% PB (PB/GVBD)” value [3, 20] was 28* % and the “% GVBD” value [3, 21] was 17* %. The “% PB (PB/GVBD)” value [3, 21] was 0* %, the “cumulus expansion with 22-hydroxycholesterol and FSH compared with FSH alone (in words)” value ([3]; tables 3 and 4, FSH 75 IU/L) was “occurs to similar degree” and the “effect on FSH induced resumption” value ([3]; tables 3 and 4, FSH 75 IU/L) was “prevents oocytes from resuming meiosis in the presence of FSH”. For the same compound, the “effect on FF-MAS induced resumption of meiosis (in words)” value [4] was “can prevent a FF-MAS induced resumption of meiosis”.

In the case of AY-9944-A-7, the “accumulation of FF-MAS (in words)” value [5] is given as “causes accumulation of FF-MAS” and the “resumption of meiosis (in words)” value [5] is given as “dose-dependant induction of resumption of meiosis”.

In the case of “EGF: epidermal growth factor (NSDSECPLSHDGYCLHDGVCMYIEALDKYACNCVVGYIGERCQYRDLKWWELR; UniProt P01133 971-1023, looked up)”, the “number of germinal vesicle oocytes reaching metaphase II (in words)” value [6] is given as “enhanced”.
